Assay [1] deals with phosphorylation of MAPK and Akt in H1650-ER1, H1650-ER2 and H1650-ER4 cells. The experiment in a line: Western blot of MAPK and Akt phosphorylation, resistant clones. The conditions noted are these: for suppression of p-AKT and p-MAPK levels: resistant H1650-ER1 cells compared to parent H1650 cells. The assay is classed as cell-based, human. In general terms: Immunoblotting shows a protein as a band on a membrane.

The subject of assay [2] is EGFR kinase activity in H23 cell lysate (wild type EGFR). The experiment in a line: Hydrogel-based peptide array kinase assay, H23 cell lysate. The assay is classed as biochemical, human. The settings on record: 0-50 μM, compared with H1650.
Assay [3] deals with phosphorylation of MAPK and Akt in H1650 cells. As to the kind of experiment: Western blot of MAPK and Akt phosphorylation, parental H1650. The assay is classed as cell-based, human.
In assay [4] the test system is erlotinib-resistant H1650 clones. The experiment in a line: cells. The conditions noted are these: Homo sapiens, NCI-H1650, 48 h, read-out: IC50, cell proliferation/viability.
In assay [5] the test system is H1650 cells. The experiment in a line: cells. The conditions noted are these: Homo sapiens, NCI-H1650, 48 h, read-out: IC50, cell proliferation/viability.
For assay [6], the system named is H1650 cells. As to the kind of experiment: Clonogenic assay, parental H1650. The assay is classed as cell-based, human. The conditions noted are these: parental H1650, continuous exposure 10 μM and 50 μM, 15 days.
The target of assay [7] is EGFR kinase activity in H1650-ER1, H1650-ER2, H1650-ER4 cell lysates (Homo sapiens, UniProt P00533, DEL746-750).

Each structure is given as a SMILES string.

With `CC#CC(=O)Nc1ccc2ncnc(Nc3cccc(Br)c3)c2c1` [CL-387,785], the “suppression of p-AKT and p-MAPK levels” value in assay [1] was “persistent activity”.

For `C#Cc1cccc(Nc2ncnc3cc(OCCOC)c(OCCOC)cc23)c1` [erlotinib], the “effect on substrate phosphorylation by H23 lysate” value in assay [2] is reported as “much less effective”. Also, the MAPK phosphorylation result in assay [1] (H1650-ER1, H1650-ER2, H1650-ER4, 0, 1 and 10 μM for 5 hr) was “maintained”; in assay [3] (parental H1650, 0, 1 and 10 μM for 5 hr, Western blot), “attenuation in MAPK phosphorylation”. The “suppression of p-AKT and p-MAPK levels” value in assay [1] was “reduced efficacy”. Besides, the Akt phosphorylation result was “did not affect” in assay [1] (resistant clones) and “did not affect” in assay [3] (parental H1650, Western blot). The figures for the IC50 (in assay [4]; with H1650 cells [5]) were greater than 20 µM and roughly 2400 nM, respectively. In addition, the colony formation entry in the assay with H1650 cells [6] is recorded as “very few colonies”.

The compound `C[C@@H](Nc1ncnc2[nH]c(-c3ccc(O)cc3)cc12)c1ccccc1` [PKI-166] had an IC50 in assay [7] greater than 10 µM.

The values are drawn from publication PMC2946430 (Biosensors & bioelectronics, 2010).
